According to PMC3694096, “Development of Novel In Vivo Chemical Probes to Address CNS Protein Kinase Involvement in Synaptic Dysfunction” (PLoS ONE, 2013):

Tests used:
ALK = target: T1, ALK (Homo sapiens, UniProt Q9UM73); assay: Kinome profiler screen; format: biochemical; conditions: at 20,000 nM inhibitor; kinase activity remaining
T1 construct: purchased Millipore KinaseProfiler

Fyn = target: T2, Fyn (Homo sapiens, UniProt P06241); assay: Kinome profiler screen; format: biochemical; conditions: at 20,000 nM inhibitor; kinase activity remaining
T2 construct: purchased Millipore KinaseProfiler

Mer = target: T3, Mer (Homo sapiens, UniProt Q12866); assay: Kinome profiler screen; format: biochemical; conditions: at 20,000 nM inhibitor; kinase activity remaining
T3 construct: purchased Millipore KinaseProfiler

MEK1 = target: T4, MEK1 (Homo sapiens, UniProt Q02750); assay: Kinome profiler screen; format: biochemical; conditions: at 20,000 nM inhibitor; kinase activity remaining
T4 construct: purchased Millipore KinaseProfiler

EGFR(T790M) = target: T5, EGFR(T790M) (Homo sapiens, UniProt P00533, T790M); assay: Kinome profiler screen; format: biochemical; conditions: at 20,000 nM inhibitor; kinase activity remaining
T5 construct: purchased Millipore KinaseProfiler

CDK5/p35 = target: T6, CDK5/p35 (Homo sapiens, UniProt Q00535); assay: Kinome profiler screen; format: biochemical; conditions: at 20,000 nM inhibitor; kinase activity remaining
T6 construct: purchased Millipore KinaseProfiler

SRPK2 = target: T7, SRPK2 (Homo sapiens, UniProt P78362); assay: Kinome profiler screen; format: biochemical; conditions: at 20,000 nM inhibitor; kinase activity remaining
T7 construct: purchased Millipore KinaseProfiler

PKG1β = target: T8, PKG1β (Homo sapiens, UniProt Q13976); assay: Kinome profiler screen; format: biochemical; conditions: at 20,000 nM inhibitor; kinase activity remaining
T8 construct: purchased Millipore KinaseProfiler

JNK3 = JNK3 (Homo sapiens, UniProt P53779); assay: Kinome profiler screen; format: biochemical
CDK5/p25 = target: T9, CDK5/p25 (Homo sapiens, UniProt Q00535); assay: Kinome profiler screen; format: biochemical; conditions: at 20,000 nM inhibitor; kinase activity remaining
T9 construct: purchased Millipore KinaseProfiler

[1] = target: T10, PI3 Kinase (p110α/p65α)(m) (Mus musculus, UniProt P42337); assay: Kinome profiler screen; format: biochemical; conditions: at 20,000 nM inhibitor; kinase activity remaining
T10 construct: purchased Millipore KinaseProfiler

PI3 Kinase (p110β/p85α) = target: T11, PI3 Kinase (p110β/p85α) (Homo sapiens, UniProt P42338); assay: Kinome profiler screen; format: biochemical; conditions: at 20,000 nM inhibitor; kinase activity remaining
T11 construct: purchased Millipore KinaseProfiler

ErbB4 = target: T12, ErbB4 (Homo sapiens, UniProt Q15303); assay: Kinome profiler screen; format: biochemical; conditions: at 20,000 nM inhibitor; kinase activity remaining
T12 construct: purchased Millipore KinaseProfiler

cKit = target: T13, cKit (Homo sapiens, UniProt P10721); assay: Kinome profiler screen; format: biochemical; conditions: at 20,000 nM inhibitor; kinase activity remaining
T13 construct: purchased Millipore KinaseProfiler

Txk = target: T14, Txk (Homo sapiens, UniProt P42681); assay: Kinome profiler screen; format: biochemical; conditions: at 20,000 nM inhibitor; kinase activity remaining
T14 construct: purchased Millipore KinaseProfiler

CaMKIV = target: T15, CaMKIV (Homo sapiens, UniProt Q16566); assay: Kinome profiler screen; format: biochemical; conditions: at 20,000 nM inhibitor; kinase activity remaining
T15 construct: purchased Millipore KinaseProfiler

TBK1 = target: T16, TBK1 (Homo sapiens, UniProt Q9UHD2); assay: Kinome profiler screen; format: biochemical; conditions: at 20,000 nM inhibitor; kinase activity remaining
T16 construct: purchased Millipore KinaseProfiler

TAO2 = target: T17, TAO2 (Homo sapiens, UniProt Q9UL54); assay: Kinome profiler screen; format: biochemical; conditions: at 20,000 nM inhibitor; kinase activity remaining
T17 construct: purchased Millipore KinaseProfiler

Hck = target: T18, Hck (Homo sapiens, UniProt P08631); assay: Kinome profiler screen; format: biochemical; conditions: at 20,000 nM inhibitor; kinase activity remaining
T18 construct: purchased Millipore KinaseProfiler

IKKβ = target: T19, IKKβ (Homo sapiens, UniProt O14920); assay: Kinome profiler screen; format: biochemical; conditions: at 20,000 nM inhibitor; kinase activity remaining
T19 construct: purchased Millipore KinaseProfiler

Plk1 = target: T20, Plk1 (Homo sapiens, UniProt P53350); assay: Kinome profiler screen; format: biochemical; conditions: at 20,000 nM inhibitor; kinase activity remaining
T20 construct: purchased Millipore KinaseProfiler

Flt3 = target: T21, Flt3 (Homo sapiens, UniProt P36888); assay: Kinome profiler screen; format: biochemical; conditions: at 20,000 nM inhibitor; kinase activity remaining
T21 construct: purchased Millipore KinaseProfiler

SGK3 = target: T22, SGK3 (Homo sapiens, UniProt Q96BR1); assay: Kinome profiler screen; format: biochemical; conditions: at 20,000 nM inhibitor; kinase activity remaining
T22 construct: purchased Millipore KinaseProfiler

TLK2 = target: T23, TLK2 (Homo sapiens, UniProt Q86UE8); assay: Kinome profiler screen; format: biochemical; conditions: at 20,000 nM inhibitor; kinase activity remaining
T23 construct: purchased Millipore KinaseProfiler

Abl = target: T24, Abl (Homo sapiens, UniProt P00519); assay: Kinome profiler screen; format: biochemical; conditions: at 20,000 nM inhibitor; kinase activity remaining
T24 construct: purchased Millipore KinaseProfiler

[2] = target: T25, PI3 Kinase (p110α/p85α)(m) (Mus musculus, UniProt P42337); assay: Kinome profiler screen; format: biochemical; conditions: at 20,000 nM inhibitor; kinase activity remaining
T25 construct: purchased Millipore KinaseProfiler

BrSK1 = target: T26, BrSK1 (Homo sapiens, UniProt Q8TDC3); assay: Kinome profiler screen; format: biochemical; conditions: at 20,000 nM inhibitor; kinase activity remaining; read-out: % Activity
T26 construct: purchased Millipore KinaseProfiler

MAPKAP-K3 = target: T27, MAPKAP-K3 (Homo sapiens, UniProt Q16644); assay: Kinome profiler screen; format: biochemical; conditions: at 20,000 nM inhibitor; kinase activity remaining
T27 construct: purchased Millipore KinaseProfiler

Met(Y1248H) = target: T28, Met(Y1248H) (Homo sapiens, UniProt P08581, Y1230H); assay: Kinome profiler screen; format: biochemical; conditions: at 20,000 nM inhibitor; kinase activity remaining
T28 construct: purchased Millipore KinaseProfiler

FGFR1 = target: T29, FGFR1 (Homo sapiens, UniProt P11362); assay: Kinome profiler screen; format: biochemical; conditions: at 20,000 nM inhibitor; kinase activity remaining
T29 construct: purchased Millipore KinaseProfiler

IRAK4 = target: T30, IRAK4 (Homo sapiens, UniProt Q9NWZ3); assay: Kinome profiler screen; format: biochemical; conditions: at 20,000 nM inhibitor; kinase activity remaining
T30 construct: purchased Millipore KinaseProfiler

IR = target: T31, IR (Homo sapiens, UniProt P06213); assay: Kinome profiler screen; format: biochemical; conditions: at 20,000 nM inhibitor; kinase activity remaining
T31 construct: purchased Millipore KinaseProfiler

PI3K-C2α = target: T32, PI3K-C2α (Homo sapiens, UniProt O00443); assay: Kinome profiler screen; format: biochemical; conditions: at 20,000 nM inhibitor; kinase activity remaining
T32 construct: purchased Millipore

Tie2 = target: T33, Tie2 (Homo sapiens, UniProt Q02763); assay: Kinome profiler screen; format: biochemical; conditions: at 20,000 nM inhibitor; kinase activity remaining
T33 construct: purchased Millipore KinaseProfiler

ZAP-70 = target: T34, ZAP-70 (Homo sapiens, UniProt P43403); assay: Kinome profiler screen; format: biochemical; conditions: at 20,000 nM inhibitor; kinase activity remaining
T34 construct: purchased Millipore KinaseProfiler

Fms(Y969C) = target: T35, Fms(Y969C) (Homo sapiens, UniProt P07333, Y969C); assay: Kinome profiler screen; format: biochemical; conditions: at 20,000 nM inhibitor; kinase activity remaining
T35 construct: purchased Millipore KinaseProfiler

DRAK1 = target: T36, DRAK1 (Homo sapiens, UniProt Q9UEE5); assay: Kinome profiler screen; format: biochemical; conditions: at 20,000 nM inhibitor; kinase activity remaining
T36 construct: purchased Millipore KinaseProfiler

Abl (M351T) = target: T37, Abl (M351T) (Homo sapiens, UniProt P00519, M351T); assay: Kinome profiler screen; format: biochemical; conditions: at 20,000 nM inhibitor; kinase activity remaining
T37 construct: purchased Millipore KinaseProfiler

CLK2 = target: T38, CLK2 (Homo sapiens, UniProt P49760); assay: Kinome profiler screen; format: biochemical; conditions: at 20,000 nM inhibitor; kinase activity remaining
T38 construct: purchased Millipore KinaseProfiler

ASK1 = target: T39, ASK1 (Homo sapiens, UniProt Q99683); assay: Kinome profiler screen; format: biochemical; conditions: at 20,000 nM inhibitor; kinase activity remaining
T39 construct: purchased Millipore KinaseProfiler

DMPK = target: T40, DMPK (Homo sapiens, UniProt Q09013); assay: Kinome profiler screen; format: biochemical; conditions: at 20,000 nM inhibitor; kinase activity remaining
T40 construct: purchased Millipore KinaseProfiler

ROCK-II(r) = target: T41, ROCK-II(r) (Rattus norvegicus, UniProt Q62868); assay: Kinome profiler screen; format: biochemical; conditions: at 20,000 nM inhibitor; kinase activity remaining
T41 construct: purchased Millipore KinaseProfiler

[3] = system: contextual and cued learning; assay: Fear conditioning, Aβ42-infused mice; format: in vivo, C57BL/6J mice

JNK3, sequence (P53779 whole entry): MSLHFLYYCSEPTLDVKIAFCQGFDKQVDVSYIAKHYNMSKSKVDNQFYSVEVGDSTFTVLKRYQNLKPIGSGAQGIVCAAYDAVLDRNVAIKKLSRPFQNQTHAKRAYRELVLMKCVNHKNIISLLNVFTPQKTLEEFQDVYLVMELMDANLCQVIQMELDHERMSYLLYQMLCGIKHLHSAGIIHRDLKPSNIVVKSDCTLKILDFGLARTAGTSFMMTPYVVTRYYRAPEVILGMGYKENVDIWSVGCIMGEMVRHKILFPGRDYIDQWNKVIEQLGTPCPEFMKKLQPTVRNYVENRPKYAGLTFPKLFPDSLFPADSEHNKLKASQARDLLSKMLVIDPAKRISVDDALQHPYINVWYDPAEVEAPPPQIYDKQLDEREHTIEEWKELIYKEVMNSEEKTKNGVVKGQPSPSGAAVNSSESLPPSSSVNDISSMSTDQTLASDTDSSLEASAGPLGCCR
T32 sequence (O00443 whole entry): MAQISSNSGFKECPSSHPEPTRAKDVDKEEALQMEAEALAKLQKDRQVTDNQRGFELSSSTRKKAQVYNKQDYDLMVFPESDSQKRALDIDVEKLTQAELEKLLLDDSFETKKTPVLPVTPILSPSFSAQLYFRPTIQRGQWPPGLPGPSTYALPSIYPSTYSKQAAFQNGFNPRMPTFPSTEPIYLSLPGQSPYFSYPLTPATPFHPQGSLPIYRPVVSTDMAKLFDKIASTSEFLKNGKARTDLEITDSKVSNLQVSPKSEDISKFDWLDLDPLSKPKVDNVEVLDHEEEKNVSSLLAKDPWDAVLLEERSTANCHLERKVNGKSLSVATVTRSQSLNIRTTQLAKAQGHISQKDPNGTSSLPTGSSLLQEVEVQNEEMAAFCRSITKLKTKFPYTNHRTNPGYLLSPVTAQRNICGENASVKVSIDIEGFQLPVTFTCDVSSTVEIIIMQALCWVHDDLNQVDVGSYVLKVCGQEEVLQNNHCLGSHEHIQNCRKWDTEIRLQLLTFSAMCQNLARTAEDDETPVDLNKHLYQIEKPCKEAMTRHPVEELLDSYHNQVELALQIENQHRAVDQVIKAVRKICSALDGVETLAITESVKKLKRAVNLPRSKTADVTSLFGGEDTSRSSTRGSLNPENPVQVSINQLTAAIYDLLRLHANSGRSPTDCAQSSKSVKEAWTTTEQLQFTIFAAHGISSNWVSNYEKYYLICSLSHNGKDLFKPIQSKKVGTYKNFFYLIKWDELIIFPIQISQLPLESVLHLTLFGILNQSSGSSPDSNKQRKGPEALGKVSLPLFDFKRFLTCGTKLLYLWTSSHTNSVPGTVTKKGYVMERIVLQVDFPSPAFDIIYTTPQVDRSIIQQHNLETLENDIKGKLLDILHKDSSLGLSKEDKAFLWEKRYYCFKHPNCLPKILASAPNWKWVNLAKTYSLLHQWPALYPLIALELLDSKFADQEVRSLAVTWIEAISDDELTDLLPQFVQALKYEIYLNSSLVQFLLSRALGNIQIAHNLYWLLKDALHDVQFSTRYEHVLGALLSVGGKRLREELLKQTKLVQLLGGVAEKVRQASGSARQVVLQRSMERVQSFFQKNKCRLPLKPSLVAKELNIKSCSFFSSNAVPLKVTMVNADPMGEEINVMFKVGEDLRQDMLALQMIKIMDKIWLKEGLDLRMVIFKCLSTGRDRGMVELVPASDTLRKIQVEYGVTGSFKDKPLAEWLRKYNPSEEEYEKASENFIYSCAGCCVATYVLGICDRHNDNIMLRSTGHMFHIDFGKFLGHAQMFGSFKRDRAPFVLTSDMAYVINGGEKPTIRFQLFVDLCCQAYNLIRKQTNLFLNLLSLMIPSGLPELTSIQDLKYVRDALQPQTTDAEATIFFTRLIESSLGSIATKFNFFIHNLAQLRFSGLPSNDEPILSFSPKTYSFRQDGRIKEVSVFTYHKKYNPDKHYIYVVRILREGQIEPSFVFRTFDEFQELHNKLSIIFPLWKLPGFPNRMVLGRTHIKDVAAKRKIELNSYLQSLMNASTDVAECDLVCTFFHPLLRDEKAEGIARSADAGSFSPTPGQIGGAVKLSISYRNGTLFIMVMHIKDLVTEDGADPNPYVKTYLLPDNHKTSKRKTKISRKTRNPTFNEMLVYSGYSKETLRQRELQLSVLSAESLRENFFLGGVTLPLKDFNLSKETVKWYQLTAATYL
T17 sequence (Q9UL54 whole entry): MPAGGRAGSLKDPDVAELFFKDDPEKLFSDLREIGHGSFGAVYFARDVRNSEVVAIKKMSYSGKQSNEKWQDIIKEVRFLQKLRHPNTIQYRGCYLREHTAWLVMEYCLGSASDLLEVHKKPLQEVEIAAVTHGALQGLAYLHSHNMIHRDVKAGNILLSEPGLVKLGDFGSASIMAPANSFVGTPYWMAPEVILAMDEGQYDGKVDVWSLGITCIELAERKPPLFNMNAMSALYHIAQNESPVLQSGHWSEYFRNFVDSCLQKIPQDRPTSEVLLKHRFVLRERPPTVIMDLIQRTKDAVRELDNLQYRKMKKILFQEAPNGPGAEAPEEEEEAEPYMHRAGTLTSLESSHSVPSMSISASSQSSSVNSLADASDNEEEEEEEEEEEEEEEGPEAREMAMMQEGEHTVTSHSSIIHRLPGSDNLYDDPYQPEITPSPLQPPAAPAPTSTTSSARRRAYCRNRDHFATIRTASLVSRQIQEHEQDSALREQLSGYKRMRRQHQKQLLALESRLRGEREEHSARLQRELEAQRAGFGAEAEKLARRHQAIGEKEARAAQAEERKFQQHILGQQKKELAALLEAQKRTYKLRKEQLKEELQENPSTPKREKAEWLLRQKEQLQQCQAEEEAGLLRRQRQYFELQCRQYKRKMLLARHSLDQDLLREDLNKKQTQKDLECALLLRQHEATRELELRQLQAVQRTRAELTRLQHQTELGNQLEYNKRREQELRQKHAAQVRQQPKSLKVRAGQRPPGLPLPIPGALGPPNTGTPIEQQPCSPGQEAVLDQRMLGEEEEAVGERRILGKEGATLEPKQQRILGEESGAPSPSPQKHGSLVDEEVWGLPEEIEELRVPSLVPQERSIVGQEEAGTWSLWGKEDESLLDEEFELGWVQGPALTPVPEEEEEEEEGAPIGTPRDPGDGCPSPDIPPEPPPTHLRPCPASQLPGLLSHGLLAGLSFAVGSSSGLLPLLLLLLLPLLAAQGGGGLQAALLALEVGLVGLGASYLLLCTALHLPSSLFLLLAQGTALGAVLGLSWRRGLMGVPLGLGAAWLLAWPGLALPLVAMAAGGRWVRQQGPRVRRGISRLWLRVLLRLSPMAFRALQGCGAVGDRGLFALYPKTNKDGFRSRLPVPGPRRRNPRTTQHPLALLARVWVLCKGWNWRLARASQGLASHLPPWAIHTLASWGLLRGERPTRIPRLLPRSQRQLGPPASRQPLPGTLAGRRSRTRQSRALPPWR
T38 sequence (P49760 whole entry): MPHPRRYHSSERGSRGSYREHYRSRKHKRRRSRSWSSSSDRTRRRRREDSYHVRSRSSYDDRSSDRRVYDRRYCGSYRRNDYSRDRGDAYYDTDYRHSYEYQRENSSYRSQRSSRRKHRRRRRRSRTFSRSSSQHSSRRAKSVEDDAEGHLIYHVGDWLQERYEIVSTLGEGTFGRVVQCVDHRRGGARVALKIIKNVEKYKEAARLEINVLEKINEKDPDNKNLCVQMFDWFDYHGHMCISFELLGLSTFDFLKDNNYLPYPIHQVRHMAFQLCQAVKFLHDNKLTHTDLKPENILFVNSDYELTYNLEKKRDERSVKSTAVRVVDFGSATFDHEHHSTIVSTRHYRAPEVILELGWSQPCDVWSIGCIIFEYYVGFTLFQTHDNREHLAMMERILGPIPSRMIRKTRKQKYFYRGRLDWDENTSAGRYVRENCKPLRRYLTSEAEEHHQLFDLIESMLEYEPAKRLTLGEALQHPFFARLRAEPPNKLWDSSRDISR
T13 sequence (P10721 26-976): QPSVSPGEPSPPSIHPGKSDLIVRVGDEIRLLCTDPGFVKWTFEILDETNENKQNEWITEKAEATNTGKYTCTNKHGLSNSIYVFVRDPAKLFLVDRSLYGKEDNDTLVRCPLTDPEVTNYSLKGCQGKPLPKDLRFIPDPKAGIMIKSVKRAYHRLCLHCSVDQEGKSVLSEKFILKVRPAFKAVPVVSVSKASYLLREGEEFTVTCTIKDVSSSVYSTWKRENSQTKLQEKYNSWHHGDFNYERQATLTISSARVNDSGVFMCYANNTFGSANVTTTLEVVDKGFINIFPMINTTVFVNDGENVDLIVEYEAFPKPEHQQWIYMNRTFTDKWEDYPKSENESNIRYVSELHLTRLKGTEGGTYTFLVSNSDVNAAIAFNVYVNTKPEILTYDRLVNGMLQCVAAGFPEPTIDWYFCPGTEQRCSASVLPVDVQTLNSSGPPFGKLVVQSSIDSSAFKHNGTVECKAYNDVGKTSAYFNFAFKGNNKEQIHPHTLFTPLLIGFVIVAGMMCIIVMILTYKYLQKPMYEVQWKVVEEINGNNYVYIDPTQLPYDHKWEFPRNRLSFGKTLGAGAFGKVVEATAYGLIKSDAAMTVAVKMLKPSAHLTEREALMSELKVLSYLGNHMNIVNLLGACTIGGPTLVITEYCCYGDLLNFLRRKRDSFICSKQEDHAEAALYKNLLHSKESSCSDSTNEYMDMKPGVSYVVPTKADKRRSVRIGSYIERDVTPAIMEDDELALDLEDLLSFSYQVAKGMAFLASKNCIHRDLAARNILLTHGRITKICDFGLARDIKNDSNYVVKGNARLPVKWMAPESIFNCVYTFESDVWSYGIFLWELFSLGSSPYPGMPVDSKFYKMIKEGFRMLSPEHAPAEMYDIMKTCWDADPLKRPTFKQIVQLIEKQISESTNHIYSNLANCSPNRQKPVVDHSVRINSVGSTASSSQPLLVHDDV

## CN(C)c1cc(-c2ccncc2)c(-c2cccc3ccccc23)nn1 [MW181, N,N-dimethyl-6-(naphthalen-1-yl)-5-(pyridin-4-yl)pyridazin-3-amine]
ALK
  activity at 20 µM: 107%
Fyn
  activity at 20 µM: 109%
Mer
  activity at 20 µM: 100%
MEK1
  activity at 20 µM: 105%
EGFR(T790M)
  activity at 20 µM: 105%
CDK5/p35
  activity at 20 µM: 95%
SRPK2
  activity at 20 µM: 109%
PKG1β
  activity at 20 µM: 97%
JNK3; at 20,000 nM inhibitor, kinase activity remaining
  activity at 20 µM: 12%
JNK3; concentration-dependent follow-up of profiler hit, read-out: IC50
  IC50: 2.4 µM
CDK5/p25
  activity at 20 µM: 99%
[1]
  activity at 20 µM: 100%
PI3 Kinase (p110β/p85α)
  activity at 20 µM: 98%
ErbB4
  activity at 20 µM: 78%
cKit
  activity at 20 µM: 106%
Txk
  activity at 20 µM: 98%
CaMKIV
  activity at 20 µM: 105%
TBK1
  activity at 20 µM: 98%
TAO2
  activity at 20 µM: 94%
Hck
  activity at 20 µM: 84%
IKKβ
  activity at 20 µM: 88%
Plk1
  activity at 20 µM: 110%
Flt3
  activity at 20 µM: 93%
SGK3
  activity at 20 µM: 100%
TLK2
  activity at 20 µM: 107%
Abl
  activity at 20 µM: 125%
[2]
  activity at 20 µM: 102%
BrSK1
  activity at 20 µM: 94%
MAPKAP-K3
  activity at 20 µM: 99%
Met(Y1248H)
  activity at 20 µM: 103%
FGFR1
  activity at 20 µM: 103%
IRAK4
  activity at 20 µM: 100%
IR
  activity at 20 µM: 112%
PI3K-C2α
  activity at 20 µM: 99%
Tie2
  activity at 20 µM: 99%
ZAP-70
  activity at 20 µM: 99%
Fms(Y969C)
  activity at 20 µM: 91%
DRAK1
  activity at 20 µM: 113%
Abl (M351T)
  activity at 20 µM: 101%
CLK2
  activity at 20 µM: 98%
ASK1
  activity at 20 µM: 109%
DMPK
  activity at 20 µM: 116%
ROCK-II(r)
  activity at 20 µM: 92%
[3]; 24 hrs after contextual learning, control test
  cued learning: No difference was detected between groups
[3]; Aβ42-infused mice
  contextual fear memory deficit: ameliorated the contextual fear memory deficit
